Source: article PMC8296573, “Synthesis and Biological Evaluation of Fingolimod Derivatives as Antibacterial Agents” (ACS Omega, 2021)
Converted amounts (≈) assume the structure as drawn. Where two headings read alike, the source gives them in different places.

Experiments:
[1] = system: S. aureus ATCC 25923; assay: Antibacterial activity, pre-exposure (planktonic cells and biofilm formation); assay type: cell-based, Staphylococcus aureus; conditions: for MIC / inhibition at 5 µM / inhibition at 10 µM / inhibition at 15 µM / inhibition at 25 µM: Staphylococcus aureus, ATCC25923; for inhibition at 5 µM / inhibition at 10 µM / inhibition at 15 µM / inhibition at 25 µM / Average inhibition %, biofilms viability / Average inhibition %, planktonic cells viability: pre-exposure, ± SD
In short: (§1)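 Compounds in DMSO were plated before bacteria were added (pre-exposure) and incubated 18 h aerobically at 37 °C with shaking. Planktonic cells were read by OD and resazurin fluorescence (20 μM final; ex 560/em 590 nm). Biofilms were read by resazurin, then crystal violet (A595) for total biomass.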

[2] = system: S. aureus ATCC 25923; assay: Antibacterial activity, post-exposure on preformed 18-h-old biofilms; assay type: cell-based, Staphylococcus aureus; conditions: ± SD; for inhibition at 25 µM / inhibition at 50 µM / inhibition at 100 µM / inhibition at 200 µM: Staphylococcus aureus; for inhibition at 25 µM: ATCC25923, 25 µM; for inhibition at 50 µM: ATCC25923, 50 µM; for inhibition at 100 µM: ATCC25923, 100 µM; for inhibition at 200 µM: ATCC25923, 200 µM
In short: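 Biofilms grown 18 h without compound, medium then replaced and compound added for a further 24 h. Planktonic OD and resazurin (20 μM final) fluorescence (ex 560/em 590 nm) read; washed biofilms stained with 20 μM resazurin 30 min at 37 °C, then ethanol-fixed and crystal violet-stained, absorbance 595 nm.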

[3] = system: A. baumannii NCTC 13423; assay: Antibacterial activity, pre-exposure; assay type: cell-based, Acinetobacter baumannii; conditions: for Average inhibition %, biofilms viability / Average inhibition %, planktonic cells viability / inhibition at 10 µM / inhibition at 15 µM / inhibition at 25 µM / inhibition at 50 µM: A. baumannii NCTC 13423, pre-exposure, ± SD; for inhibition at 10 µM / inhibition at 15 µM / inhibition at 25 µM / inhibition at 50 µM / MIC: Acinetobacter baumannii, NCTC13423
In short: as §1

[4] = system: P. aeruginosa ATCC 9027; assay: Antibacterial activity, pre-exposure; assay type: cell-based, Pseudomonas aeruginosa; conditions: for Average inhibition %, biofilms viability / Average inhibition %, planktonic cells viability / inhibition at 50 µM / inhibition at 100 µM / inhibition at 150 µM / inhibition at 200 µM: P. aeruginosa ATCC 9027, pre-exposure, ± SD; for MIC / inhibition at 50 µM / inhibition at 100 µM / inhibition at 150 µM / inhibition at 200 µM: Pseudomonas aeruginosa; for inhibition at 50 µM / inhibition at 100 µM / inhibition at 150 µM / inhibition at 200 µM: ATCC9027
In short: as §1

[5] = 10 µM, read-out: Average inhibition %, biofilms biomass
[6] = 10 µM, read-out: Average inhibition %, planktonic cells turbidity
[7] = 15 µM, read-out: Average inhibition %, biofilms biomass
[8] = 15 µM, read-out: Average inhibition %, planktonic cells turbidity
[9] = 25 µM, read-out: Average inhibition %, biofilms biomass
[10] = 25 µM, read-out: Average inhibition %, planktonic cells turbidity
[11] = read-out: Average inhibition %, biofilms biomass
[12] = read-out: Average inhibition %, planktonic cells turbidity
[13] = 50 µM, read-out: Average inhibition %, biofilms biomass
[14] = 50 µM, read-out: Average inhibition %, planktonic cells turbidity

MIC ([1]; lowest concentration with no visible growth (>90% inhibition of turbidity and viability of planktonic cells), 18 h, read-out: MIC S. aureus ATCC 25923): 15 to 25 µM (≈ 4.85 to 8.09 µg/mL)
MIC ([1]; read-out: MIC (S. aureus)): 15 to 25 µM (≈ 4.85 to 8.09 µg/mL)
MIC ([3]; pre-exposure, Inactive = no activity up to 50 μM, > = some inhibition but no MIC reached, read-out: MIC A. baumannii NCTC 13423): > 50 µM
MIC ([3]; supplementary molecular formula strings sheet, read-out: MIC (A. baumannii)): > 50 µM
MIC ([4]; ATCC9027, pre-exposure, Inactive = no activity up to 200 μM, > = some inhibition but no MIC reached, read-out: MIC P. aeruginosa ATCC 9027): > 200 µM
MIC ([4]; ATCC9027, supplementary molecular formula strings sheet, read-out: MIC (P. aeruginosa)): > 200 µM
Structure (SMILES): CCCCCCCCOc1ccc(CCC(N)(CO)CO)cc1 [Compound 48, 2-Amino-2-[4-(octyloxy)phenethyl]propane-1,3-diol]
inhibition at 5 µM ([1]; 5 µM, read-out: Average inhibition %, biofilms biomass): 28.7 ± 25.2%
inhibition at 5 µM ([1]; 5 µM, read-out: Average inhibition %, planktonic cells turbidity): 13.6 ± 13.1%
inhibition at 10 µM [1, 5]: 31.9 ± 24.6%
inhibition at 10 µM [1, 6]: 40.8 ± 18.5%
inhibition at 15 µM [1, 7]: 53.1 ± 42.8%
inhibition at 15 µM [1, 8]: 47.2 ± 50%
inhibition at 25 µM [1, 9]: 92 ± 5.9%
inhibition at 25 µM [1, 10]: 97.4 ± 2.6%
Average inhibition %, biofilms viability ([1]; 5 µM): 22.4 ± 5.4%
Average inhibition %, planktonic cells viability ([1]; 5 µM): 0 ± 0%
Average inhibition %, biofilms viability ([1]; 10 µM): 16.7 ± 15%
Average inhibition %, planktonic cells viability ([1]; 10 µM): 20.3 ± 20.7%
Average inhibition %, biofilms viability ([1]; 15 µM): 48.8 ± 44.2%
Average inhibition %, planktonic cells viability ([1]; 15 µM): 36.9 ± 54.3%
Average inhibition %, biofilms viability ([1]; 25 µM): 99.5 ± 0.8%
Average inhibition %, planktonic cells viability ([1]; 25 µM): 99.7 ± 0.2%
Average inhibition %, biofilms viability ([2]; 25 µM): 21 ± 14.6%
Average inhibition %, planktonic cells viability ([2]; 25 µM): 0.9 ± 1.6%
Average inhibition %, biofilms viability ([2]; 50 µM): 42.3 ± 5.5%
Average inhibition %, planktonic cells viability ([2]; 50 µM): 0 ± 0%
Average inhibition %, biofilms viability ([2]; 100 µM): 52.5 ± 9.2%
Average inhibition %, planktonic cells viability ([2]; 100 µM): 21.3 ± 18.5%
Average inhibition %, biofilms viability ([2]; 200 µM): 52 ± 9.4%
Average inhibition %, planktonic cells viability ([2]; 200 µM): 48.3 ± 23.5%
inhibition at 25 µM [2, 11]: 47.6 ± 0.5%
inhibition at 25 µM [2, 12]: 9.3 ± 10%
inhibition at 50 µM [2, 11]: 57.8 ± 6.5%
inhibition at 50 µM [2, 12]: 12.6 ± 10.9%
inhibition at 100 µM [2, 11]: 65.9 ± 12.5%
inhibition at 100 µM [2, 12]: 31.2 ± 10.9%
inhibition at 200 µM [2, 11]: 72.5 ± 9.8%
inhibition at 200 µM [2, 12]: 40 ± 13.2%
Average inhibition %, biofilms viability ([3]; 10 µM): 0 ± 0%
Average inhibition %, planktonic cells viability ([3]; 10 µM): 5.1 ± 0.7%
Average inhibition %, biofilms viability ([3]; 15 µM): 1.4 ± 1.2%
Average inhibition %, planktonic cells viability ([3]; 15 µM): 0 ± 0%
Average inhibition %, biofilms viability ([3]; 25 µM): 68.3 ± 27.4%
Average inhibition %, planktonic cells viability ([3]; 25 µM): 48.6 ± 48.9%
Average inhibition %, biofilms viability ([3]; 50 µM): 93.8 ± 1.3%
Average inhibition %, planktonic cells viability ([3]; 50 µM): 97.8 ± 0.3%
inhibition at 10 µM [3, 5]: 0%
inhibition at 10 µM [3, 6]: 0%
inhibition at 15 µM [3, 7]: 0%
inhibition at 15 µM [3, 8]: 0%
inhibition at 25 µM [3, 9]: 38.9 ± 34.1%
inhibition at 25 µM [3, 10]: 63.2 ± 30.2%
inhibition at 50 µM [3, 13]: 56.9 ± 19.5%
inhibition at 50 µM [3, 14]: 94.4 ± 2.3%
Average inhibition %, biofilms viability ([4]; 50 µM): 27.9 ± 25.6%
Average inhibition %, planktonic cells viability ([4]; 50 µM): 28 ± 9%
Average inhibition %, biofilms viability ([4]; 100 µM): 20.3 ± 9.9%
Average inhibition %, planktonic cells viability ([4]; 100 µM): 76.1 ± 19.4%
Average inhibition %, biofilms viability ([4]; 150 µM): 17 ± 12.1%
Average inhibition %, planktonic cells viability ([4]; 150 µM): 88 ± 8.4%
Average inhibition %, biofilms viability ([4]; 200 µM): 12.2 ± 5.8%
Average inhibition %, planktonic cells viability ([4]; 200 µM): 93.5 ± 0.6%
inhibition at 50 µM [4, 13]: 14.7 ± 10.8%
inhibition at 50 µM [4, 14]: 18.6 ± 7.4%
inhibition at 100 µM ([4]; 100 µM, read-out: Average inhibition %, biofilms biomass): 29.1 ± 19.9%
inhibition at 100 µM ([4]; 100 µM, read-out: Average inhibition %, planktonic cells turbidity): 83.9 ± 2.6%
inhibition at 150 µM ([4]; 150 µM, read-out: Average inhibition %, biofilms biomass): 37.8 ± 2.9%
inhibition at 150 µM ([4]; 150 µM, read-out: Average inhibition %, planktonic cells turbidity): 85.6 ± 3.3%
inhibition at 200 µM ([4]; 200 µM, read-out: Average inhibition %, biofilms biomass): 36.9 ± 6.7%
inhibition at 200 µM ([4]; 200 µM, read-out: Average inhibition %, planktonic cells turbidity): 87.8 ± 4.2%
